{
  "source": "patent US20090130134A1",
  "about": "“T CD4+ Epitopes of Type I and II Latency Antigens of the Epstein-Barr Virus, Which Can Be Recognized by the majority of individuals in the caucasian populations and applications thereof” (priority 2005, published 2009)",
  "key": {"HLA-DP4 (DPB1*0402)": {"molecular_target": "T1, HLA-DP4 (DPB1*0402) (Homo sapiens, UniProt P04440+P20036, A65V/A84D/A85E/L207M)", "T1 construct": "endogenous in cells", "T1 sequence (P04440 30-258 A65V/A84D/A85E)": "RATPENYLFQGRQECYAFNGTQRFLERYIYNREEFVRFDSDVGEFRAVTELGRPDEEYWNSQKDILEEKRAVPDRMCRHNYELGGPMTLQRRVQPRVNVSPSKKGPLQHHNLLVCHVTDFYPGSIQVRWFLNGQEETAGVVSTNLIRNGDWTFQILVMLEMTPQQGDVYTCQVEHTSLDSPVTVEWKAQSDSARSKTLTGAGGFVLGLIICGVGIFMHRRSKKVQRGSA", "T1 sequence (P20036 29-260)": "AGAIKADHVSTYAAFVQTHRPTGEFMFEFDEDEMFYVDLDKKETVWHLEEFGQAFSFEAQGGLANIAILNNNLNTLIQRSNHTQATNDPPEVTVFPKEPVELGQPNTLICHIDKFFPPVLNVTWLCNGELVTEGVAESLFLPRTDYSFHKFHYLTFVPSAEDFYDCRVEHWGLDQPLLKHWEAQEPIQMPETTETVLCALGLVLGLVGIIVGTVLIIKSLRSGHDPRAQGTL", "assay": "HLA II/peptide competition binding assay, HLA-DP402"}, "HLA-DRB3 (DRB3*0101)": {"molecular_target": "T2, HLA-DRB3 (DRB3*0101) (Homo sapiens, UniProt P01903+P79483)", "T2 construct": "endogenous in cells", "assay": "HLA II/peptide competition binding assay, HLA-DRB3"}, "HLA-DP4 (DPB1*0401)": {"molecular_target": "T3, HLA-DP4 (DPB1*0401) (Homo sapiens, UniProt P04440+P20036)", "T3 construct": "endogenous in cells", "T3 sequence (P04440 30-258)": "T1 sequence (P04440 30-258 A65V/A84D/A85E) with V36A, D55A, E56A", "T3 sequence (P20036 29-260)": "T1 sequence (P20036 29-260)", "assay": "HLA II/peptide competition binding assay, HLA-DP401"}, "HLA-DR13 (DRB1*1301)": {"molecular_target": "T4, HLA-DR13 (DRB1*1301) (Homo sapiens, UniProt P01903+P01911, A100E/A169T/K41T/L162R/M171V/P40S/Q125H/Q178H/Q39Y/Q99D/R42S/S66N/T262R/W38E/Y61H)", "T4 construct": "endogenous in cells", "assay": "HLA II/peptide competition binding assay, HLA-DR13"}, "HLA-DRB5 (DRB5*0101)": {"molecular_target": "T5, HLA-DRB5 (DRB5*0101) (Homo sapiens, UniProt P01903+Q30154)", "T5 construct": "endogenous in cells", "assay": "HLA II/peptide competition binding assay, HLA-DRB5"}, "HLA-DR4 (DRB1*0401)": {"molecular_target": "T6, HLA-DR4 (DRB1*0401) (Homo sapiens, UniProt P01903+P01911, A100K/A169T/F76Y/I96L/K127E/L162R/M171V/N62H/P40V/Q125Y/R42H/S133A/S149N/S66Y/V115G/V209L/W38E)", "T6 construct": "endogenous in cells", "assay": "HLA II/peptide competition binding assay, HLA-DR4"}, "HLA-DRB4 (DRB4*0101)": {"molecular_target": "T7, HLA-DRB4 (DRB4*0101) (Homo sapiens, UniProt P01903+P13762, G164S)", "T7 construct": "endogenous in cells", "assay": "HLA II/peptide competition binding assay, HLA-DRB4"}, "HLA-DR1 (DRB1*0101)": {"molecular_target": "T8, HLA-DR1 (DRB1*0101) (Homo sapiens, UniProt P01903+P01911, A100R/D57E/F55L/F60I/F76Y/I96L/L162R/M171V/P40L/Q125E/R42F/V115G/Y59C)", "T8 construct": "endogenous in cells", "assay": "HLA II/peptide competition binding assay, HLA-DR1"}, "[1]": {"system": "HLA II molecules predominant in the Caucasian population", "assay": "Binding activity with respect to the 12 HLA II molecules (summary of the panel)", "design": "species or system human", "conditions": "of 12 HLA II molecules; good affinity = IC50 less than 1000 nM", "method_in_brief": "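Competition binding of test peptides against biotinylated tracer peptides (allele-specific tracer, concentration and pH 4.5–6) to purified HLA-DR/DP molecules in DM-containing phosphate buffer, 37 °C for 24 h (72 h for DRB1*1301, *0301). Bound tracer captured on L243 or B7/21 antibody plates, detected by streptavidin-alkaline phosphatase/MUP fluorescence; mean ± SD from ≥3 experiments.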"}, "HLA-DR7 (DRB1*0701)": {"molecular_target": "T9, HLA-DR7 (DRB1*0701) (Homo sapiens, UniProt P01903+P01911, A100R/A102G/A103Q/D57E/D86V/E43K/F76Y/K127E/L162R/M171V/P40G/Q125H/Q99D/R33Q/R42Y/R54Q/S133A/S66F/T210M/V115G/Y107V/Y59L/Y89S)", "T9 construct": "endogenous in cells", "assay": "HLA II/peptide competition binding assay, HLA-DR7"}, "HLA-DR15 (DRB1*1501)": {"molecular_target": "T10, HLA-DR15 (DRB1*1501) (Homo sapiens, UniProt P01903+P01911)", "T10 construct": "endogenous in cells", "assay": "HLA II/peptide competition binding assay, HLA-DR15"}, "HLA-DR3 (DRB1*0301)": {"molecular_target": "T11, HLA-DR3 (DRB1*0301) (Homo sapiens, UniProt P01903+P01911, A100K/A102G/A103R/A169T/F55Y/I96L/K41T/L162R/M171V/P40S/Q125H/Q178H/Q39Y/R42S/S66N/T106N/T262R/W38E/Y61H)", "T11 construct": "endogenous in cells", "assay": "HLA II/peptide competition binding assay, HLA-DR3"}, "HLA-DR11 (DRB1*1101)": {"molecular_target": "T12, HLA-DR11 (DRB1*1101) (Homo sapiens, UniProt P01903+P01911, A100R/A169T/A87E/I96F/K41T/L162R/M171V/P40S/Q125H/Q178H/Q39Y/Q99D/R42S/S66Y/T262R/V115G/W38E)", "T12 construct": "endogenous in cells", "assay": "HLA II/peptide competition binding assay, HLA-DR11"}},
  "note": "Residue numbers refer to the chain shown, from its start.",
  "data": [
    {"smiles": "CC(C)C[C@H](NC(=O)[C@H](CC(C)C)NC(=O)[C@H](CC(C)C)NC(=O)[C@@H](NC(=O)[C@@H]1CCCN1C(=O)[C@H](CC(C)C)NC(=O)[C@H](Cc1c[nH]cn1)NC(=O)[C@@H]1CCCN1C(=O)[C@@H](N)CC(=O)O)[C@@H](C)O)C(=O)NCC(=O)N[C@H](C(=O)N[C@@H](CO)C(=O)NCC(=O)N[C@@H](CO)C(=O)NCC(=O)NCC(=O)N[C@@H](CC(=O)O)C(=O)N[C@@H](CC(=O)O)C(=O)N[C@@H](CC(=O)O)C(=O)N[C@@H](CC(=O)O)C(=O)N1CCC[C@H]1C(=O)N[C@@H](Cc1c[nH]cn1)C(=O)NCC(=O)N1CCC[C@H]1C(=O)N[C@H](C(=O)N[C@@H](CCC(N)=O)C(=O)N[C@@H](CC(C)C)C(=O)N[C@@H](CO)C(=O)N[C@@H](Cc1ccc(O)cc1)C(=O)N[C@@H](Cc1ccc(O)cc1)C(=O)N[C@@H](CC(=O)O)C(=O)O)C(C)C)[C@@H](C)O", "note": "[Peptide D31D]", "values": [
      {"measurement": "IC50", "setting": "HLA-DP4 (DPB1*0402)", "value": 28.3, "unit": "µM"},
      {"measurement": "IC50", "setting": "HLA-DRB3 (DRB3*0101)", "value": "> 100", "unit": "µM"},
      {"measurement": "IC50", "setting": "HLA-DP4 (DPB1*0401)", "value": "> 100", "unit": "µM"},
      {"measurement": "IC50", "setting": "HLA-DR13 (DRB1*1301)", "value": "> 100", "unit": "µM"},
      {"measurement": "IC50", "setting": "HLA-DRB5 (DRB5*0101)", "value": "> 100", "unit": "µM"},
      {"measurement": "IC50", "setting": "HLA-DR4 (DRB1*0401)", "value": "> 100", "unit": "µM"},
      {"measurement": "IC50", "setting": "HLA-DRB4 (DRB4*0101)", "value": "> 100", "unit": "µM"},
      {"measurement": "IC50", "setting": "HLA-DR1 (DRB1*0101)", "value": 17.3, "unit": "µM"},
      {"measurement": "Number of alleles bound", "setting": "[1]", "value": 1},
      {"measurement": "IC50", "setting": "HLA-DR7 (DRB1*0701)", "value": 27.5, "unit": "µM"},
      {"measurement": "IC50", "setting": "HLA-DR15 (DRB1*1501)", "value": 0.251, "unit": "µM"},
      {"measurement": "IC50", "setting": "HLA-DR3 (DRB1*0301)", "value": "> 100", "unit": "µM"},
      {"measurement": "IC50", "setting": "HLA-DR11 (DRB1*1101)", "value": 25, "unit": "µM"}
    ]}
  ]
}
